Test system: mRNA expression in peripheral blood of individuals with DMD
Assay: Whole-blood gene expression microarray: DMD administered deflazacort vs DMD administered prednisone
Format: in vivo, human
Settings: for p-value / p-value (t-test, deflazacort vs. prednisone) / p-value (t-test, deflazacort vs prednisone): deflazacort vs. prednisone
Method: Fifteen ml of blood was collected from each individual into 6 PAXgene® Vacutainer® tubes (PreAnalytiX, Germany) by antecubital fossa venipuncture. PAXgene® tubes contain a proprietary reagent that immediately stabilizes RNA, thus reducing RNA degradation and minimizing gene expression changes following phlebotomy. The tubes were then inverted 20 times, then remained undisturbed for 2 h at room temperature (about 19° C. to about 22° C.), and then stored at -70° C. until processed. Total RNA was isolated using the Paxgene® blood RNA kit (PreAnalytiX, Germany) according to the manufacturers instructions. The RNA isolated is from all cells in whole blood. Typical yields of total RNA isolated from about 7.5 ml of human whole blood were between 10 μg RNA and 40 μg RNA. RNA quality and purity was analyzed by spectrophotometry using the Nanodrop ND-1000, and RNA integrity was analyzed using the Agilent 2100 Bioanalyzer. […] Sample labeling, hybridization to chips, and image scanning were performed using standard Affymetrix protocols. For each whole blood sample from control individuals and individuals with DMD, total RNA was labeled using the One-Cycle Target Labeling protocol and hybridized to the arrays. […] Double-stranded cDNA synthesis, biotin-labeled cRNA synthesis, and cRNA fragmentation were performed according to the Affymetrix GeneChip Eukaryotic Expression Analysis protocol. The labeled, fragmented cRNA (15 μg) was hybridized at 45° C. overnight. After hybridization, the array was washed and stained. The arrays were scanned with an argon-ion laser at λ=570 nm, with a resolution of 3 μm/pixel (Affymetrix, Inc.). After scanning the array, the raw probe level values for each probe were saved in Affymetrix.cel files. […] Statistical analyses, including t-test analyses, unsupervised hierarchical clustering, and principal component analyses were conducted using Genespring 7.2 software ([…]® 7, Silicon Genetics, Redwood City Calif.). […] Corrections for multiple comparisons used a Benjamini-Hochberg False Discovery Rate (FDR) of 0.05, disclosed in Tang et al., J Cereb Blood Flow Metab 26 (2006) 1089, which is expressly incorporated by reference herein in its entirety. […] Sample processing and array hybridization, probe-level data analysis, and statistical analysis were identical to Example 1.

Question: Which results are given for CC(=O)OCC(=O)[C@@]12N=C(C)O[C@@H]1C[C@H]1[C@@H]3CCC4=CC(=O)C=C[C@]4(C)[C@H]3[C@@H](O)C[C@@]12C [deflazacort]?
Answer: expression of retinoic acid receptor α (RARa) (deflazacort compared to prednisone, blood): significantly up-regulated; p-value (AA100891, Nucleic Acid No. 2100): 0.0498; p-value (AA534416, Nucleic Acid No. 2105): 0.0123; p-value (t-test, deflazacort vs. prednisone) (AA679303, Nucleic Acid No. 2067): 0.0185; p-value (AA702409, Nucleic Acid No. 2116): 0.0453; p-value (t-test, deflazacort vs. prednisone) (AA789296, Nucleic Acid No. 2010): 0.0291; p-value (t-test, deflazacort vs. prednisone) (AA830854, Nucleic Acid No. 1325): 0.0452; p-value (t-test, deflazacort vs prednisone) (AB023216, Nucleic Acid No. 2081): 0.00521; p-value (t-test, deflazacort vs prednisone) (AB033106, Nucleic Acid No. 2083): 0.0446; p-value (AF005774, Nucleic Acid No. 1945): 0.0104; p-value (AF009616, Nucleic Acid No. 1950): 0.0293; p-value (AF009619, Nucleic Acid No. 1943): 0.0064; p-value (AF015451, Nucleic Acid No. 1946): 0.0107; p-value (AF041459, Nucleic Acid No. 1944): 0.00822; p-value (AF041461, Nucleic Acid No. 1947): 0.013; p-value (AF075067, Nucleic Acid No. 2112): 0.0376; p-value (AF083208, Nucleic Acid No. 1892): 0.00348; p-value (t-test, deflazacort vs prednisone) (AF098114, Nucleic Acid No. 2069): 0.0202; p-value (AF147300, Nucleic Acid No. 1995): 0.0271; p-value (t-test, deflazacort vs prednisone) (AF207547, Nucleic Acid No. 2088): 0.00744; p-value (AF285167, Nucleic Acid No. 1894): 0.0117; p-value (AF313468, Nucleic Acid No. 1956): 0.0435; p-value (AF400600, Nucleic Acid No. 1955): 0.0263; p-value (AF400602, Nucleic Acid No. 1954): 0.0148; p-value (t-test, deflazacort vs prednisone) (AF499918, Nucleic Acid No. 2091): 0.0369; p-value (t-test, deflazacort vs. prednisone) (AI017983, Nucleic Acid No. 1338): 0.0323; p-value (t-test, deflazacort vs. prednisone) (AI056689, Nucleic Acid No. 2031): 0.043; p-value (t-test, deflazacort vs prednisone) (AI080505, Nucleic Acid No. 2099): 0.0412; p-value (AI091372, Nucleic Acid No. 1918): 0.00592; p-value (AI093231, Nucleic Acid No. 1906): 0.0085; p-value (t-test, deflazacort vs. prednisone) (AI250910, Nucleic Acid No. 2014): 0.0029; p-value (AI342146, Nucleic Acid No. 1905): 0.048; p-value (t-test, deflazacort vs. prednisone) (AI393727, Nucleic Acid No. 2034): 0.0345; p-value (AI436803, Nucleic Acid No. 1916): 0.00828; p-value (t-test, deflazacort vs prednisone) (AI535735, Nucleic Acid No. 2089): 0.0426; p-value (t-test, deflazacort vs. prednisone) (AI608725, Nucleic Acid No. 2053): 6.16E−05; p-value (AI651726, Nucleic Acid No. 2119): 0.0107; p-value (AI670862, Nucleic Acid No. 2017): 0.0109; p-value (t-test, deflazacort vs. prednisone) (AI719730, Nucleic Acid No. 2039): 0.00281; p-value (AI762695, Nucleic Acid No. 1996): 0.032; p-value (AI768497, Nucleic Acid No. 1910): 0.0137; p-value (t-test, deflazacort vs prednisone) (AI814925, Nucleic Acid No. 2072): 0.0422; p-value (t-test, deflazacort vs prednisone) (AI830331, Nucleic Acid No. 2075): 0.0149; p-value (t-test, deflazacort vs. prednisone) (AI830490, Nucleic Acid No. 2028): 0.0146; p-value (AI860150, Nucleic Acid No. 2018): 0.026; p-value (AI862537, Nucleic Acid No. 2118): 0.0333; p-value (t-test, deflazacort vs. prednisone) (AI868267, Nucleic Acid No. 1444): 0.0285; p-value (t-test, deflazacort vs. prednisone) (AI906424, Nucleic Acid No. 2044): 0.0287; p-value (t-test, deflazacort vs. prednisone) (AI926544, Nucleic Acid No. 2054): 0.0136; p-value (AI985590, Nucleic Acid No. 1901): 0.0389; p-value (AJ422148, Nucleic Acid No. 2104): 0.026; p-value (AK000119, Nucleic Acid No. 2121): 0.0375; p-value (t-test, deflazacort vs. prednisone) (AK023348, Nucleic Acid No. 2037): 0.0274; p-value (AK024677, Nucleic Acid No. 1915): 0.00386; p-value (t-test, deflazacort vs. prednisone) (AK024911, Nucleic Acid No. 2045): 0.0429; p-value (AK025217, Nucleic Acid No. 1997): 0.0404; p-value (t-test, deflazacort vs. prednisone) (AK074686, Nucleic Acid No. 2042): 0.0406; p-value (AK090660, Nucleic Acid No. 2080): 0.0288; p-value (t-test, deflazacort vs. prednisone) (AK092709, Nucleic Acid No. 2013): 0.0392; p-value (AL021977, Nucleic Acid No. 2110): 0.0121; p-value (AL049250, Nucleic Acid No. 2101): 0.0486; p-value (t-test, deflazacort vs. prednisone) (AL049273, Nucleic Acid No. 1402): 0.0448; p-value (t-test, deflazacort vs prednisone) (AL137645, Nucleic Acid No. 906): 0.0416; p-value (t-test, deflazacort vs. prednisone) (AL832727, Nucleic Acid No. 2022): 0.0334; p-value (AL833448, Nucleic Acid No. 2084): 0.0326; p-value (AU145206, Nucleic Acid No. 1909): 0.046; p-value (AU158358, Nucleic Acid No. 1897): 0.0325; p-value (AV700030, Nucleic Acid No. 2063): 0.0254; p-value (AV722693, Nucleic Acid No. 1994): 0.000689; p-value (AW070431, Nucleic Acid No. 2113): 0.0198; p-value (t-test, deflazacort vs. prednisone) (AW081561, Nucleic Acid No. 2012): 0.0484; p-value (AW135013, Nucleic Acid No. 2109): 0.0166; p-value (t-test, deflazacort vs. prednisone) (AW504458, Nucleic Acid No. 2032): 0.0109; p-value (t-test, deflazacort vs prednisone) (AW590838, Nucleic Acid No. 2082): 0.0481; p-value (t-test, deflazacort vs. prednisone) (AW978350, Nucleic Acid No. 2027): 0.0388; p-value (BC001152, Nucleic Acid No. 2025): 0.0219; p-value (t-test, deflazacort vs. prednisone) (BC003542, Nucleic Acid No. 2048): 0.00709; p-value (BC006230, Nucleic Acid No. 2123): 0.0131; p-value (BC006454, Nucleic Acid No. 1650): 0.0101; p-value (t-test, deflazacort vs. prednisone) (BC012090, Nucleic Acid No. 2043): 0.0289; p-value (BC017896, Nucleic Acid No. 487): 0.0133; p-value (t-test, deflazacort vs. prednisone) (BC025237, Nucleic Acid No. 2047): 0.0274; p-value (t-test, deflazacort vs. prednisone) (BC039454, Nucleic Acid No. 2011): 0.0311; p-value (BC042832, Nucleic Acid No. 2103): 0.0214; p-value (t-test, deflazacort vs prednisone) (BC043187, Nucleic Acid No. 2073): 0.0446; p-value (BE207758, Nucleic Acid No. 1913): 0.00136; p-value (BE348688, Nucleic Acid No. 1904): 0.0249; p-value (BE439987, Nucleic Acid No. 1711): 0.0106; p-value (BE465380, Nucleic Acid No. 1911): 0.0346; p-value (BE550881, Nucleic Acid No. 2102): 0.0423; p-value (t-test, deflazacort vs. prednisone) (BE563442, Nucleic Acid No. 2062): 0.00559; p-value (BE727883, Nucleic Acid No. 2120): 0.0383; p-value (t-test, deflazacort vs. prednisone) (BE880245, Nucleic Acid No. 2033): 0.00733; p-value (t-test, deflazacort vs prednisone) (BE964989, Nucleic Acid No. 2085): 0.0484; p-value (t-test, deflazacort vs. prednisone) (BF338947, Nucleic Acid No. 2056): 0.0148; p-value (BF477544, Nucleic Acid No. 1895): 0.0499; p-value (t-test, deflazacort vs prednisone) (BF514079, Nucleic Acid No. 1363): 0.0432; p-value (BF575213, Nucleic Acid No. 2122): 0.00608; p-value (t-test, deflazacort vs. prednisone) (BF694956, Nucleic Acid No. 2041): 0.0262; p-value (t-test, deflazacort vs prednisone) (BG029530, Nucleic Acid No. 2074): 0.000753; p-value (t-test, deflazacort vs prednisone) (BG249565, Nucleic Acid No. 2087): 0.00518; p-value (D87291, Nucleic Acid No. 2077): 0.0322; p-value (H12280, Nucleic Acid No. 2098): 0.038; p-value (L18865, Nucleic Acid No. 2114): 0.034; p-value (t-test, deflazacort vs. prednisone) (M15330, Nucleic Acid No. 2060): 0.0137; p-value (t-test, deflazacort vs prednisone) (M35999, Nucleic Acid No. 2071): 0.014; p-value (t-test, deflazacort vs. prednisone) (M60626, Nucleic Acid No. 2020): 0.0333; p-value (N36408, Nucleic Acid No. 2019): 0.0384; p-value (N59653, Nucleic Acid No. 1900): 0.044; p-value (t-test, deflazacort vs prednisone) (N66633, Nucleic Acid No. 2090): 0.0434; p-value (t-test, deflazacort vs. prednisone) (NM_000404, Nucleic Acid No. 2029): 0.000522; p-value (t-test, deflazacort vs prednisone) (NM_000419, Nucleic Acid No. 2070): 0.0421; p-value (NM_000484, Nucleic Acid No. 1261): 0.00856; p-value (NM_000565, Nucleic Acid No. 2064): 0.0489; p-value (t-test, deflazacort vs. prednisone) (NM_000576, Nucleic Acid No. 2059): 0.00127; p-value (NM_001109, Nucleic Acid No. 1899): 0.0468; p-value (NM_001154, Nucleic Acid No. 1902): 0.0116; p-value (t-test, deflazacort vs. prednisone) (NM_001456, Nucleic Acid No. 2015): 0.0172; p-value (t-test, deflazacort vs. prednisone) (NM_001553, Nucleic Acid No. 2057): 0.0297; p-value (t-test, deflazacort vs. prednisone) (NM_001557, Nucleic Acid No. 2065): 0.0421; p-value (NM_001637, Nucleic Acid No. 1903): 0.0269; p-value (NM_001659, Nucleic Acid No. 1908): 0.00749; p-value (NM_001690, Nucleic Acid No. 1917): 0.021; p-value (t-test, deflazacort vs. prednisone) (NM_002068, Nucleic Acid No. 2030): 0.00544; p-value (t-test, deflazacort vs. prednisone) (NM_002087, Nucleic Acid No. 2038): 0.0294; p-value (t-test, deflazacort vs. prednisone) (NM_002110, Nucleic Acid No. 2040): 0.0352; p-value (t-test, deflazacort vs. prednisone) (NM_002155, Nucleic Acid No. 2049): 0.0206; p-value (t-test, deflazacort vs prednisone) (NM_002199, Nucleic Acid No. 2068): 0.0118; p-value (t-test, deflazacort vs prednisone) (NM_002229, Nucleic Acid No. 2076): 0.0299; p-value (NM_003644, Nucleic Acid No. 2023): 0.00498; p-value (NM_003879, Nucleic Acid No. 1948): 0.0159; p-value (NM_004041, Nucleic Acid No. 1914): 0.0324; p-value (t-test, deflazacort vs. prednisone) (NM_004517, Nucleic Acid No. 2066): 0.0161; p-value (NM_004735, Nucleic Acid No. 2106): 0.0293
